Columns and labels:
Type in all cases: biochemical
Conditions in all cases: 10 μM EP009
FGFR2 = FGFR2 (Homo sapiens, UniProt P21802); assay: Kinase panel: FGFR2
Method: (§1) Achieving JAK3 selectivity remains a significant challenge in the development of new small molecules for the treatment of cancer and immune-derived diseases. As such, the inventors employed cell-based screening assays of small-molecule libraries based upon the chemical scaffold of the established JAK3 inhibitor NC1153 (Stepkowski et al., J Immunol. (2005), 175(7):4236-4246) EP009 (FIG. 2A) was selected as a lead compound due to improved intrinsic stability (>95% purity in various solvents at 37° C. for 24 hours; FIG. 3) and high-degree of JAK3 selectivity. To test JAK3 versus JAK2 specificity of EP009, the IL-2/JAK3-dependent Kit225, and IL-3/JAK2-dependent BaF/3 cell lines were used. Kit225 and BaF/3 cells growing in the presence of IL-2 or IL-3, respectively, were treated with ascending concentrations of EP009 for 12 hours and cellular JAK3 and JAK2 tyrosine phosphorylation levels detected by Western blot analysis (FIGS. 2B and 2C). Following densitometric analysis, EP009 was determined to dose-dependently reduce IL-2-mediated JAK3 tyrosine phosphorylation with a cellular 50% inhibitory concentration (IC50) between 10 and 20 μM (FIG. 2B). […] To globally evaluate specificity, the inhibitory activity of EP009 was measured against a panel of protein kinases distributed throughout the kinome using the scanEDGE profiling service (KINOMEscan). […]

FLT3 = FLT3 (Homo sapiens, UniProt P36888); assay: Kinase panel: FLT3
Method: as §1

PKAC-alpha = PKAC-alpha (Homo sapiens, UniProt P17612); assay: Kinase panel: PKAC-alpha
Method: as §1

Chain of FLT3 (P36888 27-993): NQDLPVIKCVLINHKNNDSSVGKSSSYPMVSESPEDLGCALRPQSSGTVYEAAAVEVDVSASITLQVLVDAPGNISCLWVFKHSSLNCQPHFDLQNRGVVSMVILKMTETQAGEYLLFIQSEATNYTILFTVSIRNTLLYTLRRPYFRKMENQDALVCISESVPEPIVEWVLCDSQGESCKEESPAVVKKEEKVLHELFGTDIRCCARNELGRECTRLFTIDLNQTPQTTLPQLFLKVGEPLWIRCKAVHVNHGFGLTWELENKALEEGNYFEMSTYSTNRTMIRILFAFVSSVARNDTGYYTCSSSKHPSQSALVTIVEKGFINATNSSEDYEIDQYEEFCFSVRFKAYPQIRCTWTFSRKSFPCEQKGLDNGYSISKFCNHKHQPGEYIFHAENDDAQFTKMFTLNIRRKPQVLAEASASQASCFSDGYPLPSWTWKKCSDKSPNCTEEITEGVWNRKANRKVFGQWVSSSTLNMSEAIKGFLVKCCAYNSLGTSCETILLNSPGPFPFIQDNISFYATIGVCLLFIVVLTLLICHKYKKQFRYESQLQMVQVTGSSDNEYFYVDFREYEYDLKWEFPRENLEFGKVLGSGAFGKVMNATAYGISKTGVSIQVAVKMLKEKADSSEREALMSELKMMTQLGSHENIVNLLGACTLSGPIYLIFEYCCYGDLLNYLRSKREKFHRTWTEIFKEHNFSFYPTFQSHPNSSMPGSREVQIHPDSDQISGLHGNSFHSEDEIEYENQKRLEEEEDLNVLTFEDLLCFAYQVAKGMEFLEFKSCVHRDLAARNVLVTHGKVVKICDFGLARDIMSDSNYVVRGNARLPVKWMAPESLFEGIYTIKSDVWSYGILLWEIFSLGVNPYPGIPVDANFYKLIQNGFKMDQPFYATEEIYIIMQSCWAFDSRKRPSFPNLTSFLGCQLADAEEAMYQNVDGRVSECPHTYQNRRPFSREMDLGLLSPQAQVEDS
Chain of FGFR2 (P21802 22-821): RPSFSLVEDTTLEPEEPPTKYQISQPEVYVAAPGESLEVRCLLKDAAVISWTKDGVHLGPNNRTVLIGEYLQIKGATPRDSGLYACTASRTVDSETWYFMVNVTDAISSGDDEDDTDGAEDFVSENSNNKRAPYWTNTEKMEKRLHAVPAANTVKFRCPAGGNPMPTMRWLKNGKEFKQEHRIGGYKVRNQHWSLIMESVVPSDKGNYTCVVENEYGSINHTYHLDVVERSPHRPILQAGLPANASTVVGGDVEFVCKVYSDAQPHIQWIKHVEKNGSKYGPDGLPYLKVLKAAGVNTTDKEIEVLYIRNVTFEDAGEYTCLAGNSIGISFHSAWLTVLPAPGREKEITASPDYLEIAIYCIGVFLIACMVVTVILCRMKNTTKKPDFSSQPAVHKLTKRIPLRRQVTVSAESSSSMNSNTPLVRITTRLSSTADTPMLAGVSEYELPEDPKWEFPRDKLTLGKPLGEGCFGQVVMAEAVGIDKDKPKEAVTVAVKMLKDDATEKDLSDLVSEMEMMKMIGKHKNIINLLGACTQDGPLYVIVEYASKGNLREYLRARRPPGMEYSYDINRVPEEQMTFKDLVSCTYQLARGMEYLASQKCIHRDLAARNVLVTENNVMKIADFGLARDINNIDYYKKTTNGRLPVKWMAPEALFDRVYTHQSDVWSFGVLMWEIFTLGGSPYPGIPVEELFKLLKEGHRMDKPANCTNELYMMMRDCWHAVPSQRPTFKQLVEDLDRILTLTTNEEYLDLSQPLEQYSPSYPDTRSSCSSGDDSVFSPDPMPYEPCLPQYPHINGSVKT

Structure (SMILES): C=C1CCCCCCCCCC(CO)C1=O (stereo not drawn) [EP009, 2-(Hydroxymethyl)-12-methylenecyclododecanone]
- Kinase Activity (% of Control) (FGFR2): 100 % of Control
- Kinase Activity (% of Control) (FLT3): 99 % of Control
- Kinase Activity (% of Control) (PKAC-alpha): 100 % of Control

From US9371265B2, “Compositions and methods related to inhibitors of JAK kinase” (EP PHARMA, INC., priority 2012, dated 2016)
